According to US10106539B2, “Spiro-indolines for the treatment and prophylaxis of respiratory syncytial virus infection (RSV)” (REVIRAL LIMITED, priority 2014, dated 2018):

Columns and labels:
[1] = Liver microsomal stability, dog; format: in vitro ADME; conditions: male, Beagle, pooled liver microsomes, pH 7.4, Comparative Example 2, read-out: Liver Microsomal Stability T1/2, dog (Table 5)
Experimental: Microsomal Incubation: Experimental Procedure
Pooled human liver microsomes (pooled male and female), pooled rat liver microsomes (male Sprague Dawley rats) and pooled dog liver microsomes (male Beagle dog) are purchased from a reputable commercial supplier and stored at −80° C. prior to use.
Microsomes (final protein concentration 0.5 mg/mL), 0.1 M phosphate buffer pH 7.4 and test compound (final substrate concentration 3 μM; final DMSO concentration 0.25%) are pre-incubated at 37° C. prior to the addition of NADPH (final concentration 1 mM) to initiate the reaction. The final incubation volume is 50 μL. A control incubation is included for each compound tested where 0.1 M phosphate buffer pH 7.4 is added instead of NADPH (minus NADPH). Two control compounds are included with each species. All incubations are performed singularly for each test compound.
Compounds are incubated for 0, 5, 15, 30 and 45 min. The control (minus NADPH) is incubated for 45 min only. The reactions are stopped by transferring 25 μL of incubate to 50 μL methanol at the appropriate time points. The termination plates are centrifuged at 2,500 rpm for 20 min at 4° C. to precipitate the protein. Following protein precipitation, the sample supernatants are combined in cassettes of up to 4 compounds, internal standard is added and samples analysed by LC-MS/MS. From a plot of ln peak area ratio (compound peak area/internal standard peak area) against time, the gradient of the line is determined. Subsequently, half-life and intrinsic clearance are calculated

RSV = RSV plaque reduction assay (Comparative Example 1, strain not stated); format: cell-based; conditions: human respiratory syncytial virus; read-out: RSV Plaque Reduction assay IC50 (Table 4)
Experimental: Plaque Reduction Assay: […] After an overnight incubation at 37° C. in a humidified 5% CO2 atmosphere, the monolayer of cells should be approximately 90% confluent. Antiviral compounds were titrated in pre-warmed Serum Free (SF) Optimem in a U-bottom 96 well plate. […] Media was then removed from cells and replaced with PBS (100 μl/well). RSV stock was thawed and diluted in SF Optimem media to 4000 PFU/mLl. An equal volume of virus was added to compounds on the titration plate. PBS was removed from cells which were then inoculated with the virus/compound solution (50 μL/well). Cells were incubated for 2 h in a 37° C.+5% CO2 humidified incubator to allow infection. […] Cells were subsequently incubated for 48 h at 37° C.+5% CO2 in a humidified incubator. Immunostaining Procedure: Media was removed from cells and the monolayer washed with PBS. Cells were fixed with ice cold 80% Acetone in PBS (100 μl/well) for 20 mins at −20° C. […] Blocking solution was removed and plates washed once with PBS-T. Primary antibody in blocking solution was added to plates (50 μl/well) and incubated for 1 h at 37° C. Plates were then washed 3 times with PBS-T. Secondary antibody in blocking solution was added to plates (50 μL/well) and incubated for 1 h at 37° C. in the dark. […] Data Analysis: Images obtained were saved and plaque numbers counted with the aid of computer imaging software. […]

RSV A2 (PRNT1) = assay: RSV plaque reduction assay, A2 (PRNT1), Vero cells; format: cell-based, respiratory syncytial virus; conditions: human respiratory syncytial virus, Vero; n = 4
Experimental: Plaque Reduction Assay: […] After an overnight incubation at 37° C. in a humidified 5% CO2 atmosphere, the monolayer of cells should be approximately 90% confluent. Antiviral compounds were titrated in pre-warmed Serum Free (SF) Optimem in a U-bottom 96 well plate. […] Media was then removed from cells and replaced with PBS (100 μl/well). RSV stock was thawed and diluted in SF Optimem media to 4000 PFU/mLl. An equal volume of virus was added to compounds on the titration plate. PBS was removed from cells which were then inoculated with the virus/compound solution (50 μL/well). Cells were incubated for 2 h in a 37° C.+5% CO2 humidified incubator to allow infection. […] Immunostaining Procedure: Media was removed from cells and the monolayer washed with PBS. Cells were fixed with ice cold 80% Acetone in PBS (100 μl/well) for 20 mins at −20° C. […] Blocking solution was removed and plates washed once with PBS-T. Primary antibody in blocking solution was added to plates (50 μl/well) and incubated for 1 h at 37° C. Plates were then washed 3 times with PBS-T. Secondary antibody in blocking solution was added to plates (50 μL/well) and incubated for 1 h at 37° C. in the dark. […] Plates were scanned on the Odyssey Imager (Li-Cor Biosciences) at a resolution of […], medium quality and level 5 intensity in the […]. Data Analysis: Images obtained were saved and plaque numbers counted with the aid of computer imaging software. EC50 values for compounds were derived from dose response curves [three variable log (inhibitor) vs response] obtained using Graphpad Prism software.

RSV-A5 (6440) = assay: RSV plaque reduction assay, RSV-A5 (6440), Vero cells; format: cell-based; conditions: human respiratory syncytial virus, n = 1
Experimental: (§1) Plaque Reduction Assay: […] After an overnight incubation at 37° C. in a humidified 5% CO2 atmosphere, the monolayer of cells should be approximately 90% confluent. Antiviral compounds were titrated in pre-warmed Serum Free (SF) Optimem in a U-bottom 96 well plate. […] Media was then removed from cells and replaced with PBS (100 μl/well). RSV stock was thawed and diluted in SF Optimem media to 4000 PFU/mLl. An equal volume of virus was added to compounds on the titration plate. PBS was removed from cells which were then inoculated with the virus/compound solution (50 μL/well). Cells were incubated for 2 h in a 37° C.+5% CO2 humidified incubator to allow infection. […] Immunostaining Procedure: Media was removed from cells and the monolayer washed with PBS. Cells were fixed with ice cold 80% Acetone in PBS (100 μl/well) for 20 mins at −20° C. […] Blocking solution was removed and plates washed once with PBS-T. Primary antibody in blocking solution was added to plates (50 μl/well) and incubated for 1 h at 37° C. Plates were then washed 3 times with PBS-T. Secondary antibody in blocking solution was added to plates (50 μL/well) and incubated for 1 h at 37° C. in the dark. […] Data Analysis: Images obtained were saved and plaque numbers counted with the aid of computer imaging software. […]

RSV-A5 (6470) = assay: RSV plaque reduction assay, RSV-A5 (6470), Vero cells; format: cell-based; conditions: human respiratory syncytial virus, n = 1
Experimental: as §1

RSV-BA (Brasil) = assay: RSV plaque reduction assay, RSV-BA (Brasil), Vero cells; format: cell-based; conditions: human respiratory syncytial virus, n = 1
Experimental: as §1

## CC(C)CCn1c(CN2C(=O)C3(CC3)c3ccccc32)nc2cc(CN)ccc21 [RV039, 1′-((5-(aminomethyl)-1-isopentyl-1H-benzo[d]imidazol-2-yl)methyl)spiro[cyclopropane-1,3′-indolin]-2′-one, reference compound]
[1]
  half-life at 3 μM: > 1.67 h
RSV
  IC50: 31 nM

## NCc1ccc2c(c1)nc(CN1C(=O)C3(CC3)c3ccc(F)cc31)n2CCCC(F)(F)F [Example 1, 1′-{[5-(Aminomethyl)-1-(4,4,4-trifluorobutyl)-1H-1,3-benzodiazol-2-yl]methyl}-6′-fluoro-1′,2′-dihydrospiro[cyclopropane-1,3′-indole]-2′-one]
RSV A2 (PRNT1)
  IC50: 2.1 nM
  IC90: 13.5 nM
RSV-A5 (6440)
  IC50: 5.7 nM
  IC90: 106 nM
RSV-A5 (6470)
  IC50: 10.3 nM
  IC90: 81 nM
RSV-BA (Brasil)
  IC50: 2.1 nM
  IC90: 34.5 nM
